Measured values taken from patent publication US11136352B2, “Immunotherapy against several tumors including neuronal and brain tumors” (IMMATICS BIOTECHNOLOGIES GMBH, priority 2008, dated 2021).

Test system: granzyme B-secreting CTLs
Assay: not given
Conditions: type 1 diabetic patients and antibody-positive relatives compared with healthy donors; cited from earlier work

Row | Compound | Reactivity of granzyme B-secreting CTLs
1 | NLAQDLATV (listed as Homo sapiens) [GFAP-001, HLA-A*02 peptide from GFAP] | enhanced reactivity

Test system: CD8+ T cells from HLA-A*02+ buffy coats of healthy donors
Assay: In vitro priming of CD8+ T cells with pMHC/anti-CD28 coated beads (aAPC), tetramer readout
Assay type: cell-based, human
Conditions: healthy HLA-A*02+ donors; three in vitro stimulations; TUMAP-specific tetramer+ CD8+ T cells
Procedure: To perform in vitro stimulations by artificial antigen presenting cells (aAPC) loaded with peptide-MHC complex (pMHC) and anti-CD28 antibody, first we isolated PBMCs (peripheral blood mononuclear cells) from fresh HLA-A*02+ buffy coats by using standard density gradient separation medium (PAA, Cölbe, Germany). Buffy coats were either obtained from the Blood Bank Tubingen or from the Katharinenhospital Stuttgart. Isolated PBMCs were incubated overnight in T-cell medium (TCM) for human in vitro priming consisting of RPMI-Glutamax (Invitrogen, Karlsruhe, Germany) supplemented with 10% heat inactivated human AB serum (PAA, Cölbe, Germany), 100 U/ml Penicillin/100 μg/ml Streptomycin (Cambrex, Verviers, Belgium), 1 mM sodium pyruvate (CC Pro, Neustadt, Germany) and 20 μg/ml Gentamycin (Cambrex). CD8+ lymphocytes were isolated using the CD8+ MACS positive selection kit (Miltenyi, Bergisch Gladbach, Germany) according to the manufacturer's instructions. […] 800.000 beads/200 μl were coated in 96-well plates in the presence of 600 ng biotin anti-CD28 plus 200 ng relevant biotin-pMHC (high density beads) or 2 ng relevant plus 200 ng irrelevant (pMHC library) MHC (low density beads). Stimulations were initiated in 96-well plates by co-incubating 1×10^6 CD8+ T cells with 2×10^5 washed coated beads in 200 μl TCM supplemented with 5 ng/ml IL-12 (PromoCell) for 3-4 days at 37° C. Half of the medium was then exchanged by fresh TCM supplemented with 80 U/ml IL-2 and incubating was continued for 3-4 days at 37° C. This stimulation cycle was performed for a total of three times. […] Peptide specific cells were calculated as percentage of total CD8+ T cells. Evaluation of tetrameric analysis was done using the software FCS Express (De Novo Software). In vitro priming of specific tetramer+CD8+ lymphocytes was detected by appropriate gating and by comparing to negative control stimulations.

Row | Compound | Positive donors/donors tested | Positive wells/wells tested
2 | GLWHHQTEV (listed as Homo sapiens) [NRCAM-001, HLA-A*02 peptide from NRCAM] | 86% | 39%
3 | ALWAWPSEL (listed as Homo sapiens) [BCA-002, HLA-A*02 peptide from BCAN] | 75% | 35%
4 | AMTQLLAGV (listed as Homo sapiens) [TNC-001, HLA-A*02 peptide from TNC] | 60% | 30%
5 | NLDTLMTYV (listed as Homo sapiens) [NLGN4X-001, HLA-A*02 peptide from NLGN4X] | 100% | 62%
6 | LTFGDVVAV (listed as Homo sapiens) [FABP7-001, HLA-A*02 peptide from FABP7] | 100% | 27%
7 | CSCC[C@H](NC(=O)[C@@H](N)[C@@H](C)O)C(=O)N[C@@H](CC(C)C)C(=O)N[C@@H](C)C(=O)N[C@@H](CCCNC(=N)N)C(=O)N[C@@H](CC(C)C)C(=O)N[C@@H](C)C(=O)N[C@@H](CO)C(=O)N[C@@H](C)C(=O)O [CSP-001] | 100% | 57%
8 | TLVGIIVGV (listed as Homo sapiens) [PDPN-001, HLA-A*02 peptide from PDPN] | 60% | 11%
9 | KIQEILTQV (listed as Homo sapiens) [IGF2BP3-001, HLA-A*02 peptide from IGF2BP3] | 50% | 21%
10 | FLGDPPEKL (listed as Homo sapiens) [BCA-001, HLA-A*02 peptide from BCAN] | 60% | 5%
11 | YLIAGIISL (listed as Homo sapiens) [SLCO1C1-001, HLA-A*02 peptide from SLCO1C1] | 60% | 7%
12 | GLQSQIAQV (listed as Homo sapiens) [NES-001, HLA-A*02 peptide from NES] | 75% | 38%
13 | SLNELRVLL (listed as Homo sapiens) [CLIP2-001, HLA-A*02 peptide from CLIP2] | 75% | 6%
14 | QLLAGVFLA (listed as Homo sapiens) [TNC-002, HLA-A*02 peptide from TNC] | 50% | 14%

Test system: precursor T cells of glioblastoma patients
Assay: In vitro immunogenicity in a small number of glioblastoma patients
Assay type: cell-based, human
Conditions: compared with healthy donors

Row | Compound | Immunogenicity in glioblastoma patients
15 | ALWAWPSEL (listed as Homo sapiens) [BCA-002, HLA-A*02 peptide from BCAN] | immunogenic to a similar extent compared with healthy donors
16 | NLDTLMTYV (listed as Homo sapiens) [NLGN4X-001, HLA-A*02 peptide from NLGN4X] | immunogenic to a similar extent compared with healthy donors
